Experimental data from EP0501641A1, “L-2-oxothiazolidine-4-carboxylate and glutathion esters for the treatment of hepatic diseases” (CLINTEC NUTRITION COMPANY, priority 1991, dated 1992).

Experiment: Example 3: post liver transplant supplementation with glutathione methyl ester tablets, plasma glutathione monitored
Type: in vivo
Conditions: tablet t.i.d. containing 0.5 g, Normal Range 4.5
Excerpt: A person with primary biliary cirrhosis underwent liver transplant. In addition to routine post-surgery immuno-suppressive and nutritional therapies the patient received a glutathione-containing tablet t.i.d. containing 0.5 g glutathione methyl ester. The goal of the therapy was to normalize plasma and tissue glutathione status.
Plasma glutathione concentration was monitored periodically; values for Week 1 and Week 12 are given below: […]

SMILES: COC(=O)CNC(=O)[C@H](CS)NC(=O)CC[C@H](N)C(=O)O [glutathione methyl ester]
- Plasma Glutathione (Week 1, person after liver transplant): 1.2 µM
- Plasma Glutathione (Week 12): 3.9 µM
